In US11882858B2, “Composition for skin whitening comprising β-mangostin as effective ingredient” (INDUSTRY-ACADEMIC COOPERATION FOUNDATION GYEONGSANG …, priority 2015, dated 2024):
Where a SMILES comes first, the peptide text is derived from it. The star is where a group is joined. Cbz = O=C(OCc1ccccc1)*

What was measured:
[1] = test system: B16F10 mouse melanoma cells; experiment: Melanin content in α-MSH-treated cells; format: cell-based; conditions: for influence on melanin content: co-treatment of inhibitor with β-mangostin and α-MSH; for melanin content reduction / change in melanin content: co-treatment with α-MSH, compared to α-MSH only; for melanin content reduction: 5 μM
Procedure: Measurement of melanin content was carried out by slightly modifying the method by Yang et al. (Yang et al., 2006, Acta pharmacologica Sinica 27, 1467-73). Specifically, B16F10 cells were inoculated into a 6-well plate and cultured for 24 hours. […] The cultured cells were collected after being subjected to trypsinization and dissolution in 1 N NaOH containing DMSO for 24 hours at 65° C. By using a microplate reader (Bio-Rad), melanin content was measured at 415 nm.
(§1) As a result, as it is shown in FIG. 3, cell pellets were turned into black color when the treatment is carried out with α-MSH only. […] Namely, it was shown that β-mangostin suppresses the pigmentation induced by α-MSH. […] In particular, when the treatment is carried out with β-mangostin at 5 μM, which is the same concentration as α-mangostin, melanin content was reduced by 40% or so.

tyrosinase [2] = experiment: Tyrosinase expression (RT-PCR and Western blotting); format: cell-based, mouse; conditions: for effect on the suppressed tyrosinase expression induced by β-mangostin: autophagy inhibitor with β-mangostin and α-MSH
Procedure: (§2) Total RNA was extracted from the cells by using RiboEX reagent (GeneAll Biotechnology Co. Ltd, Seoul, South Korea). cDNA was synthesized by using 2 μg of RNA based on reverse transcription (Thermo Scientific, Waltham, MA, USA). PCR was carried out by using Solg™ e-Taq DNA polymerase kit (SolGent Co. Ltd, Daejeon, South Korea), and each primer described in the following Table 1 was used for PCR.
Total proteins were extracted by using RIPA dissolving buffer (50 mM Tris-HCl (pH 8.0), 150 mM NaCl, 1% NP-40, 0.5% sodium dioxycholate and 0.1% SDS). […] The membrane was then incubated with 5% skim milk and primary antibody for 1 hour in TBS (tris-buffer saline) containing 0.1% Tween 20. The antibodies against tyrosinase and TRP-1 were purchased from Santa Cruz Biotechnology, USA. LC3B, p62 and ATG5 were purchased from CST (Cell Signaling Technology, USA). The antibody against PMEL was purchased from Abcam (UK). Signal detection was made based on enhanced chemiluminescence (Bio-Rad).

[3] = test system: p62 and PMEL (premelanosome protein); experiment: p62 and PMEL expression (Western blot); format: cell-based, mouse; conditions: for effect on the suppressed expression of p62 and PMEL induced by β-mangostin: autophagy inhibitor with β-mangostin and α-MSH
Procedure: (§3) Total proteins were extracted by using RIPA dissolving buffer (50 mM Tris-HCl (pH 8.0), 150 mM NaCl, 1% NP-40, 0.5% sodium dioxycholate and 0.1% SDS). The proteins were separated on a 10 to 15% SDS-PAGE, and transferred to a PVDF membrane (Millipore, Billerica, MA, USA). The membrane was then incubated with 5% skim milk and primary antibody for 1 hour in TBS (tris-buffer saline) containing 0.1% Tween 20. The antibodies against tyrosinase and TRP-1 were purchased from Santa Cruz Biotechnology, USA. LC3B, p62 and ATG5 were purchased from CST (Cell Signaling Technology, USA). The antibody against PMEL was purchased from Abcam (UK). Signal detection was made based on enhanced chemiluminescence (Bio-Rad).
Autophagy occurs through a fusion process between an autophagosome and a lysosome. In order to confirm whether or not the depigmentation effect induced by β-mangostin occurs through lysosome-dependent protein degradation during the autophagy process, B16F10 cells were treated with bafilomycin A1 (liquid vacuole type, H^+-ATPase inhibitor) which inhibits β-mangostin, α-MSH, and lysosome activity. As a result, as it is shown in FIG. 7, bafilomycin A1 inhibits, at the aforementioned conditions, the suppressed tyrosinase expression that has been induced by β-mangostin.

tyrosinase [4] = target: T1, tyrosinase (Mus musculus, UniProt P11344); experiment: Tyrosinase activity (L-DOPA oxidation) in cell lysates; format: cell-based
T1 construct: The cultured cells were collected and dissolved with 1% Triton X-100 solution for 1 hour on ice; endogenous in cells; host or cells: B16F10 mouse melanoma cells
T1 sequence (P11344 19-533): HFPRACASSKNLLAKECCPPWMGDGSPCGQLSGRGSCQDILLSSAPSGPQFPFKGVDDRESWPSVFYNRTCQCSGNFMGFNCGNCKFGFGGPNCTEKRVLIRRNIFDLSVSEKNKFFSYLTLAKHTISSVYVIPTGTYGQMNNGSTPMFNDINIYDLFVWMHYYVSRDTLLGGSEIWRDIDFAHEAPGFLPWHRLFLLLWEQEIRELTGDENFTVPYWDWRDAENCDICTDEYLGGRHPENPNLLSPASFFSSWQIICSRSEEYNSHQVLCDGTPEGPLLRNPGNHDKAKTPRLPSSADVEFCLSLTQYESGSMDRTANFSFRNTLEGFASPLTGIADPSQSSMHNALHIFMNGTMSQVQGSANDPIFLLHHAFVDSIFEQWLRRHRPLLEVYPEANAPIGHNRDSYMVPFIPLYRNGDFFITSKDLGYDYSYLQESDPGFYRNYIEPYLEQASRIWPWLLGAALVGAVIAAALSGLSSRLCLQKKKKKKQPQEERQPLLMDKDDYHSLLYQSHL
Procedure: Tyrosinase activity was measured by slightly modifying the method by Ohgushi et al. (Ohgushi et al., 2009, Biological & Pharmaceutical Bulletin 32, 308-10). Specifically, B16F10 cells were inoculated into a 6-well plate and cultured for 24 hours. Thereafter, the cells were treated with β-mangostin and α-MSH, each at 1 μM, followed by culture for 48 hours. The cultured cells were collected and dissolved with 1% Triton X-100 solution for 1 hour on ice. The proteins were cultured with 100 μl (2 mg/ml) L-DOPA in a 5% CO2 humidifying incubator at 37° C. condition. By using a microplate reader (Bio-Rad), absorbance at 490 nm was measured.

[5] = test system: B16F10 mouse melanoma cells; experiment: Cell viability (MTT analysis); format: cell-based; conditions: 24 hours, at 20 μM and 40 μM
Procedure: B16F10 cells were cultured for 24 hours in a 96-well plate. […] Subsequently, a MTT solution (5 μg/mL) was added to the cells, which were then cultured for 3 hours. After removing the medium and treating the cells with DMSO, the cells were cultured for 20 minutes. By using a microplate reader (Bio-Rad), absorbance at 595 nm was measured.
Then, based on MTT […]-(4,5-dimethylthiazol-2-yl)-2,5-diphenyltetrazolium bromide) analysis, cell viability was determined.

[6] = test system: TRP-1 (tyrosinase-related protein-1); experiment: TRP-1 expression (RT-PCR and Western blotting); format: cell-based, mouse; conditions: B16F10 cells
Procedure: as §2, §3
In order to confirm the whitening effect of β-mangostin, RT-PCR and Western blotting analysis were carried out for tyrosinase and TRP-1.

[7] = test system: B16F10 mouse melanoma cells; experiment: Removal of melanin previously produced by α-MSH; format: cell-based; conditions: treatment after 2 days of α-MSH
Procedure: In order to determine the activity of β-mangostin for removing melanin which has been previously produced by α-MSH as a melanin cell stimulating hormone, B16F10 cells were treated for 2 days with α-MSH to have synthesis of melanin. Thereafter, the cells were treated with β-mangostin of the present invention and 3-MA, which is an autophagy inhibitor.

[8] = test system: mRFP-EGFP-LC3B in B16F10 cells; experiment: Melanosome autophagy in cells expressing mRFP-EGFP-LC3B (confocal microscopy); format: cell-based, mouse; conditions: β-mangostin (10 μM) and α-MSH (1 μM)
Procedure: B16F10 cells were infected with mRFP-EGFP-LC3B (Kimura et al., 2007, Autophagy 3, 452-60) by using Lipofectamine 3000 (Invitrogen, Carlsbad, CA, USA). The cells were treated with β-mangostin (10 μM) and α-MSH (1 μM), and analysis was made by using confocal microscopy (FV1000, Olympus, Tokyo, Japan).
In order to confirm whether or not β-mangostin can induce the autophagy of a melanosome, B16F10 cells were infected with a construct expressing mRFP-EGFP-LC3B, and then treated with β-mangostin and α-MSH. […] On the other hand, the number of red spots increased in the group treated with both α-MSH and β-mangostin while total number of spots has decreased. If an autophagosome fuses with a lysosome only after wrapping the melanosome, the intra-autophagosomal pH should decrease, and EGFP should be abolished under acidic pH conditions. Accordingly, it was found from the above results that, due to the autophagy enhanced by β-mangostin, degradation of a melanosome has occurred.

[9] = test system: B16F10 mouse melanoma cells; experiment: Suppression of α-MSH-induced pigmentation (cell pellet color); format: cell-based; conditions: co-treatment with α-MSH, 72 hours
Procedure: as §1, with “In order to see whether or not β-mangostin can suppress the pigmentation induced by α-MSH (melanocyte-stimulating hormone), B16F10 cells were treated with α-MSH and β-mangostin followed by incubation for 72 hours. As” for “As”

[10] = siATG5, β-mangostin (10 μM) and α-MSH (1 μM), 48 hours
[11] = treatment after 2 days of α-MSH (melanin previously produced)

## Cn1cnc(N)c2ncnc1-2 [3-methyladenine]
[1]
  influence on melanin content: starts to increase again
Tyrosinase [2]
  effect on the suppressed tyrosinase expression induced by β-mangostin: inhibited
[3]
  effect on the suppressed expression of p62 and PMEL induced by β-mangostin: inhibit the suppressed expression

## CC(C)C[C@@H](C=O)NC(=O)[C@H](CC(C)C)NC(=O)[C@H](CC(C)C)NC(=O)OCc1ccccc1 [MG132] (Cbz-Leu-Leu-Leu-aldehyde)
[1]
  influence on melanin content: no influence
Tyrosinase [4]; co-treatment of inhibitor with β-mangostin and α-MSH
  influence on L-DOPA oxidation: no influence
Tyrosinase [2]; co-treatment of inhibitor with β-mangostin and α-MSH (proteasome dependence)
  tyrosinase expression amount: did not increase

## CO/C1=C\C(C)=C\[C@@H](C)[C@@H](O)[C@@H](C)C/C(C)=C/C=C/[C@H](OC)[C@@H]([C@@H](C)[C@@H](O)[C@H](C)[C@@]2(O)C[C@@H](O)[C@H](C)[C@@H](C(C)C)O2)OC1=O [bafilomycin A1]
Tyrosinase [2]
  effect on the suppressed tyrosinase expression induced by β-mangostin: inhibits

## CCN(CC)CCCC(C)Nc1ccnc2cc(Cl)ccc12 (centres unmarked) [chloroquine, reference compound]
Tyrosinase [2]
  effect on the suppressed tyrosinase expression induced by β-mangostin: inhibited
[3]
  effect on the suppressed expression of p62 and PMEL induced by β-mangostin: inhibit the suppressed expression

## COc1c(O)cc2oc3cc(O)c(CC=C(C)C)c(O)c3c(=O)c2c1CC=C(C)C [α-mangostin]
[5]
  cytotoxicity (cell viability, MTT): potent cytotoxicity
[1]
  melanin content reduction: about 20%

## COc1cc2oc3cc(O)c(OC)c(CC=C(C)C)c3c(=O)c2c(O)c1CC=C(C)C [β-mangostin]
[6]
  expression amount of TRP-1 induced by α-MSH: effectively lowered
[1]
  change in melanin content: effectively reduced
  melanin content reduction: ~40%
[1]; [10]
  melanin content level reduced by β-mangostin, after knockdown of ATG5: increased again
[7]
  content of previously formed melanin: lower effectively
[8]
  number of red spots (mRFP-EGFP-LC3B): increased
  total number of spots (mRFP-EGFP-LC3B): decreased
Tyrosinase [4]; co-treatment with α-MSH, concentration dependent
  oxidation level of L-DOPA: effectively reduced
Tyrosinase [2]; RT-PCR and Western blotting, B16F10 cells
  expression amount of tyrosinase induced by α-MSH: effectively lowered
Tyrosinase [2]; [10]
  expression of tyrosinase reduced by β-mangostin, after knockdown of ATG5: increased again
Tyrosinase [2]; [11]
  expression amount of tyrosinase: lower a significant expression amount
[9]
  cell pellet color: changed from black color to white color
[3]; [10]
  expression of p62 and PMEL reduced by β-mangostin, after knockdown of ATG5: increased again
[3]; [11]
  expression amount of PMEL: lower a significant expression amount

## CC(C)=CCc1c(O)cc2oc3cc(O)c(O)c(CC=C(C)C)c3c(=O)c2c1O [γ-mangostin]
[1]
  change in melanin content: further increased the melanin content
